In patent US20110150769A1, “IDENTIFICATION AND USE OF COMPOUNDS FOR TREATING PERSISTENT PAIN” (priority 2009, published 2011):
Entries after “also recorded” stand apart in the source; their conditions may differ.

Key:
human MrgprX1 = human MrgprX1 (Homo sapiens, UniProt Q96LB2); conditions: literature; cited from earlier work
[1] = tested on: chronic constriction injury model of neuropathic pain in mice; assay: CCI-induced mechanical allodynia (von Frey test) after intrathecal injection; format: in vivo, mouse; conditions: 0.5 mM, 5 μl i.th.
Excerpt: A chronic constriction injury (CCI) at the left sciatic nerve was induced in adult male mice. Inhalation anesthesia was induced with a constant level of isoflurane (2.0%) delivered through a nose cone. Under aseptic conditions, the left sciatic nerve at the middle thigh level was separated from the surrounding tissue and loosely tied with three nylon sutures (9-0 nonabsorbable-monofilament, S&T AG, Neuhausen, Switzerland). The distance between two adjacent ligatures was around 0.5 mm.
CCI-induced mechanical allodynia: mechanical sensitivity was assessed with the von Frey test using the frequency method. Two calibrated von Frey monofilaments (low force: 0.07 g and high force: 0.45 g) were used. Each von Frey filament was applied perpendicularly to the plantar side of each hind paw for approximately 1 sec; the stimulation was repeated 10 times to both hind paws. The occurrence of paw withdrawal in each of these 10 trials was expressed as a percent response frequency: paw withdrawal frequency (PWF)=(number of paw withdrawals/10 trials)×100%.
BAM 8-22 was purchased from Tocris (Bristol, UK) and was suspended in 0.9% saline. The drug was injected intrathecally under brief isoflurane (1.5%) anesthesia to reduce stress. […]

[2] = tested on: CFA-induced thermal hyperalgesia in mice; assay: CFA-induced heat hyperalgesia (Hargreaves test) after intrathecal injection; format: in vivo, mouse
Protocol: All behavioral tests were performed with an experimenter blinded to the genotype. The mice used in the tests were backcrossed to C57BI/6 mice for at least five generations and were 2 to 3 month-old males (20-30 g).
CFA-induced heat hyperalgesia: the intraplantar region of one hind paw of each mouse was injected with 6 μl of 50% CFA solution or 10 μl of 1% carrageneen solution in saline. Thermal pain sensitivity was assessed by recording paw withdrawal latencies on exposure to a defined radiant heat stimulus (Hargreaves test) before CFA injection and 30 min after injection.
BAM 8-22 was purchased from Tocris (Bristol, UK) and was suspended in 0.9% saline. The drug was injected intrathecally under brief isoflurane (1.5%) anesthesia to reduce stress. A 30-gauge, 0.5-inch needle connected to a 10-μl syringe was inserted into one side of the L5 or L6 spinous process at an angle of approximately 20° above the vertebral column and slipped into the groove between the spinous and transverse processes. The needle was moved carefully forward to the intervertebral space.
The ability of BAM 8-22 to modulate persistent inflammatory pain was determined by examining enhanced pain sensitivity to a noxious heat stimulus, as monitored by the Hargreaves test 24 hours after intra-plantar injection of CFA (6 μl, 50%) into one hind paw. […] In WT mice, a single intrathecal injection of BAM 8-22 (1 mM, 5 μl) was able to alleviate thermal hyperalgesia at 30 min post-injection, increasing the PWL by 1.9-fold compared to pre-drug baseline (FIG. 6A, WT, n=13, ipsilateral paw).

rat MrgprC = target: T1, rat MrgprC (Rattus norvegicus, UniProt Q8R4G1); conditions: Han et al, 2002, Lembo et al.; cited from earlier work
T1 sequence (Q8R4G1 1-323): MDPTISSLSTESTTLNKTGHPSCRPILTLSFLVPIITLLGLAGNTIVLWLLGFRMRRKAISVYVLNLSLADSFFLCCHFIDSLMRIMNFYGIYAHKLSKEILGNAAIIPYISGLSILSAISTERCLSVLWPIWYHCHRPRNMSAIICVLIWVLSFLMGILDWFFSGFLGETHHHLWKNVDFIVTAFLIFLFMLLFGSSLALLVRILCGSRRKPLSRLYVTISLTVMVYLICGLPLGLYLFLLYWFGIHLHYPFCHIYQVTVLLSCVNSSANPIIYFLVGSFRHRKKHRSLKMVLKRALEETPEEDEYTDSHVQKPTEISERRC

Sequence of human MrgprX1 (Q96LB2 whole entry): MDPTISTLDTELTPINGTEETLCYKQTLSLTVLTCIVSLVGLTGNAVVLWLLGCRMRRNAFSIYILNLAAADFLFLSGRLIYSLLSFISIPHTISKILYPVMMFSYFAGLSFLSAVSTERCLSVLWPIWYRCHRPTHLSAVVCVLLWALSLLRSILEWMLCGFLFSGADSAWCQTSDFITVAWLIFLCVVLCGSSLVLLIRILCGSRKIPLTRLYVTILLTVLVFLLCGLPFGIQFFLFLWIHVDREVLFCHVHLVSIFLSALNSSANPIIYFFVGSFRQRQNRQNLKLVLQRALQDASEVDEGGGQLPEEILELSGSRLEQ

## BAM 8-22
Human MrgprX1
  activation of human MrgprX1: specifically activates
[1]; WT mice, low-force 0.07 g and high-force 0.45 g, 14-18 days post-injury, after 30 min
  CCI-induced mechanical pain hypersensitivity (paw withdrawal frequency), ipsilateral hind paw: significantly attenuated; also recorded: significantly reduced
[1]; either group
  paw withdrawal responses (PWF) of the contralateral, uninjured side: did not significantly change; also recorded: did not significantly reduce
[2]; Mrgpr-clusterΔ−/− mice, 1 mM, 5 μl i.th., 24 h after CFA
  anti-hyperalgesic effect, ipsilateral hind paw: not observed
[2]; WT and Mrgpr-clusterΔ−/− mice, contralateral hind paw
  sensitivity to acute radiant heat (Hargreaves test): did not significantly change
[2]; WT mice, 1 mM, 5 μl i.th., 24 h after CFA
  thermal hyperalgesia of the ipsilateral hind paw: significantly alleviated
[2]; WT mice, ipsilateral paw, 1 mM, 5 μl i.th., 30 min post-injection, 24 h after CFA
  increase of paw withdrawal latency (PWL) compared to pre-drug baseline: 1.9 fold
[2]; either group (WT, Mrgpr-clusterΔ−/−), 1 mM, 5 μl i.th.
  PWL of the contralateral (control side) hind paw: did not significantly affect
Rat MrgprC
  activation of rat MrgprC: specifically activates
